In paper PMC8920872 (Toxicology Reports, 2022):
Where two headings read alike, the source gives them in different places.

Legend:
Type in all cases: cell-based
[1] = test system: MCF-10A normal-like breast epithelial cells; test: MTT dose response assay, MCF-10A; conditions: Homo sapiens, 72 h
[2] = test system: JIMT-1 breast cancer cells; test: MTT dose response assay, JIMT-1; conditions: Homo sapiens, JIMT-1, 72 h
[3] = test system: MCF-7 breast cancer cells; test: MTT dose response assay, MCF-7; conditions: Homo sapiens, MCF7, 72 h
[4] = read-out: IC50 (mean of three repeats ± SD)

Row | SMILES | IC50 [1, 4] [µM] | IC50 [2, 4] [µM] | IC50 [1] [µM] | IC50 [3] [µM] | IC50 [2] [µM]
1 | C=C[C@@]12COC(=O)C(=C)[C@@H]1[C@@H](O)[C@H](C(=C)C(=O)OC)[C@@H](OC(=O)C(=C)CO)C2 [Vernodalol, reference compound] | 12.1 | 11.1 |  |  | 
2 | C=C[C@@]12COC(=O)C(=C)[C@@H]1[C@H]1OC(=O)C(=C)[C@@H]1[C@@H](O)C2 [Vernolepin (5), Vernolepin] |  |  | 2.3 ± 0.2 | 15.9 ± 0.6 | 1.7 ± 0.3
